Source: paper PMC3001719, “The heme sensing response regulator HssR in Staphylococcus aureus but not the homologous RR23 in Listeria monocytogenes modulates susceptibility to the antimicrobial peptide plectasin” (BMC Microbiology, 2010)

How the values were obtained:
L. monocytogenes = assay: Extracellular protein profile by SDS-PAGE; assay type: cell-based, Listeria monocytogenes; conditions: L. monocytogenes grown with or without plectasin overnight at 37°C in BHI; data not shown
Description: Prewarmed TSB and BHI (25 ml) in a 250 ml Erlenmeyer flask was inoculated with S. aureus strains and L. monocytogenes strains, respectively. These flasks were grown with and without plectasin at 37°C overnight (≈ 17 h) with shaking. The next morning, the exact absorbance at 600 nm of the cultures was measured, and 15 ml of culture was centrifuged to precipitate the cells (6 000 RPM; 7 min; 0°C). The supernatant was transferred to a 50 ml Blue cap bottle (placed in an ice/water bath), and the extracellular proteins were precipitated by adding one volume of ice-cold 96% EtOH and left in the refrigerator overnight for proteins to precipitate. Precipitated proteins were collected by centrifugation (11,000 RPM; 30 min; 0°C). Protein pellets were suspended in a volume of 50 mM Tris-HCl (pH 6.8) adjusted to the original absorbance of the overnight culture so that 15 ml of overnight culture with absorbance at 600 nm of 5.0 was suspended in 0.8 ml of 50 mM Tris-HCl (pH 6.8). A sample of 15 μl of the protein extracts was analysed on NuPAGE® 4-12% Bis-Tris gels (Invitrogen) using the X Cell SureLock® Mini-Cell system (Invitrogen) as recommended by the supplier. The gels were Coomassie stained using GelCode® Blue Stain Reagent (Pierce).

[1] = test system: L. monocytogenes wild type; assay: Spontaneous mutation control on plectasin plates; assay type: cell-based, Listeria monocytogenes; conditions: L. monocytogenes wild type grown on BHI with 4, 5 or 10 fold MIC of plectasin
Description: The transposon mutant libraries were screened on agar plates for increased resistance to plectasin as compared to wild-type sensitivity. Wild-type sensitivity was determined by plating approx. 1.0 × 10^7 CFU/ml on TSB agar containing plectasin (S. aureus) and approx. […] Plates were incubated at 37°C for 3 days and inspected for growth. […]

CC[C@H](C)[C@@H]1NC(=O)[C@H](CO)NC(=O)[C@H](CCCCN)NC(=O)[C@@H]2CSSC[C@@H](C(=O)N[C@@H](Cc3ccc(O)cc3)C(=O)O)NC(=O)[C@H](CCCCN)NC(=O)[C@@H]3CSSC[C@H](NC(=O)[C@H](CCC(N)=O)NC(=O)[C@H](CCSC)NC(=O)[C@H](CC(=O)O)NC(=O)[C@H](CC(=O)O)NC(=O)[C@H](CCC(=O)O)NC(=O)[C@H](CC(=O)O)NC(=O)[C@H](Cc4c[nH]c5ccccc45)NC(=O)[C@@H]4CCCN4C(=O)CNC(=O)[C@H](CC(N)=O)NC(=O)[C@@H](NC(=O)CNC(=O)[C@H](Cc4ccccc4)NC(=O)CN)CSSC[C@H](NC(=O)[C@H](Cc4ccc(O)cc4)NC(=O)CNC(=O)CNC(=O)[C@H](CCCCN)NC(=O)[C@H](Cc4ccc(O)cc4)NC(=O)CNC(=O)[C@H](CCCCN)NC1=O)C(=O)N[C@@H](C)C(=O)N[C@@H](CCCCN)C(=O)NCC(=O)NCC(=O)N[C@@H](Cc1ccccc1)C(=O)N[C@@H](C(C)C)C(=O)N3)C(=O)N[C@@H](Cc1c[nH]cn1)C(=O)N[C@@H](CC(N)=O)C(=O)N[C@@H](Cc1c[nH]cn1)C(=O)N2 [plectasin]
Abundance of extracellular proteins (L. monocytogenes): no difference in the abundance of extracellular proteins | Spontaneous mutations leading to changes in sensitivity [1]: no spontaneous mutations
